For 19 compounds, DC50 results are on record in patent US20240051946A1, “TARGETED PROTEIN DEGRADATION OF PARP14 FOR USE IN THERAPY” (Ribon Therapeutics, Inc., priority 2022, published 2024).

Usually DC50 stands for the concentration at which degradation of the target reaches its halfway point.

This experiment has as its target T1, PARP14 (Homo sapiens, UniProt Q460N5).
T1 construct: engineered to contain a HiBiT tag on both alleles of the PARP14 gene; endogenous in cells; host or cells: Jurkat cells stably expressing LgBiT (Promega), with CRISPR/Cas9 knock-in of HiBiT at the PARP14 locus
The experiment in a line: HiBiT assay for the degradation of PARP14 (HiBiT tagged PARP14 in LgBiT expressing Jurkat cells). The format is cell-based. The conditions noted are these: Assay B, 37° C. for 2 or 24 hours, luminescence, read-out: DC50. How it is done:
Jurkat cells stably transfected with LgBiT (Promega) were engineered to contain a HiBiT tag on both alleles of the PARP14 gene (Genbank Accession Number: NM_017554) via CRISPR/Cas9 editing. The HiBiT tag is an 11 amino acid tag created by Promega that associates with LgBiT protein to form the NanoLuc® tag on the C-terminus of PARP14. Clones were isolated and confirmed for the HiBiT tag via Sanger sequencing.
Degradation of PARP14 protein was assessed by measuring the luminescence of the HiBiT tag associating with the LgBiT protein as a proxy for the PARP14 protein. Jurkat cells were diluted to 250,000 cells per mL and then added to assay plate (Corning 3574) using a Multidrop (Thermo Fisher) to add 20 μL per well of the 384 well plate, resulting in 5,000 cells per well. 20 nL of a dose response curve diluted in DMSO of each test compound was added to the cell plate using a Mosquito (TTP Labtech) and the plate was incubated at 37° C. for 2 or 24 hours. Assay plate was brought to room temperature then 5 μL per well of Live Cell Substrate (Promega) was added to the plate. Luminescence was measured on an Envision (Perkin Elmer).
The average DMSO was calculated from 32 wells containing 0.1% DMSO only in columns 12 and 24 of the assay plate. The % of DMSO values were calculated as described below: […]
The % of DMSO values were plotted as a function of compound concentration and the following 4-parameter fit was applied to derive the DC50 values:
where top, bottom, and Hill Coefficient are allowed to float. Y is the % of DMSO and X is the compound concentration.
DC50 data for the Example compounds is provided below in Table 2 (“+” is <0.03 μM; “++” is ≥0.03 μM).

Counter-ions that a name gives are not always drawn. Bounds are passed on as bounds.

T1 sequence (Q460N5 whole entry): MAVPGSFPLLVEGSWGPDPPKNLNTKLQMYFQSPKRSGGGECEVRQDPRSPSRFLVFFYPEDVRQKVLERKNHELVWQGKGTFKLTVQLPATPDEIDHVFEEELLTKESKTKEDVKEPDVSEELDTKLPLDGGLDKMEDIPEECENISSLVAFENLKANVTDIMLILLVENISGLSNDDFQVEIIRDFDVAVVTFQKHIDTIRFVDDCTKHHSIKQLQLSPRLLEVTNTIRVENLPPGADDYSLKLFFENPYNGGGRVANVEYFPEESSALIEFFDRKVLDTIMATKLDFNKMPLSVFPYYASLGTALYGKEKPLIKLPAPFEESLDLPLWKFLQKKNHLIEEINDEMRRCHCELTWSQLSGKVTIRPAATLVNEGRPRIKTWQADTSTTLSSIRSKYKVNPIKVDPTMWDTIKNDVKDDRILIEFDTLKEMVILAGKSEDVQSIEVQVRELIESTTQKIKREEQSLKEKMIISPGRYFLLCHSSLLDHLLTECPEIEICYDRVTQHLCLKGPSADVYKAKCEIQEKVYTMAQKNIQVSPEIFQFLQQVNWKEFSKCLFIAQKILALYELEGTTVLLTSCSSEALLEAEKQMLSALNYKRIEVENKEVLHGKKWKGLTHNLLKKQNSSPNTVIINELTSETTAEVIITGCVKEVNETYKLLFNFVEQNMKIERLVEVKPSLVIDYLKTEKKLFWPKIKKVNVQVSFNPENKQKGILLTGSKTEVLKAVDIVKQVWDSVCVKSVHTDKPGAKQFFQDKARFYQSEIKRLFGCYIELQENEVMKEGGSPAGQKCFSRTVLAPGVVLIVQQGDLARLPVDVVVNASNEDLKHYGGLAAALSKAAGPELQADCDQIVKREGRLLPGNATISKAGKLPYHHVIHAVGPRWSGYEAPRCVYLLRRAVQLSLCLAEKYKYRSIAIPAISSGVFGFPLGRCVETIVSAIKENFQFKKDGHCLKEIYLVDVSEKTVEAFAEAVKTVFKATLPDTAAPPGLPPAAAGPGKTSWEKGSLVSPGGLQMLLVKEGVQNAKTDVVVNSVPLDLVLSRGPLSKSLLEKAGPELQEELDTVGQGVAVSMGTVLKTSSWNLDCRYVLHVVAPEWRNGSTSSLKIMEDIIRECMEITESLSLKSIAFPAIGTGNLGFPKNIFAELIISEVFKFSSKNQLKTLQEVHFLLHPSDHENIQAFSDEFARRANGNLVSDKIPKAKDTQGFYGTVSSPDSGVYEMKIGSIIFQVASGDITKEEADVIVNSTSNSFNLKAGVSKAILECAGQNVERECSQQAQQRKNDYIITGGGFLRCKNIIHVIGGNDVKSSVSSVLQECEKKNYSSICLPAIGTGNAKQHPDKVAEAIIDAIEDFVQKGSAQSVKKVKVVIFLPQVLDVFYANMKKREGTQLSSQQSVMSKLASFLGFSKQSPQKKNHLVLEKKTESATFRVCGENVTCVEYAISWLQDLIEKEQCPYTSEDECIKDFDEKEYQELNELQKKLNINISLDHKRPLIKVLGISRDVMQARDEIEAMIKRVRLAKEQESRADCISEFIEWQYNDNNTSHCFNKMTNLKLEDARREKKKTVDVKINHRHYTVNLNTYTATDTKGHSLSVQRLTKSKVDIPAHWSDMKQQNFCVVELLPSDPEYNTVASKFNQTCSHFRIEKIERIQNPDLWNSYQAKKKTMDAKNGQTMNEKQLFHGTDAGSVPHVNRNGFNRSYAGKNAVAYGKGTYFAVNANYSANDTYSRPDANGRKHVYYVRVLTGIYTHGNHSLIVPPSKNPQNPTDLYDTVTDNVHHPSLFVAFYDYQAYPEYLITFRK

`O=C1CCC(Nc2ccc(N3CCC(N4CC(N5CCC(SCc6nc7cc(OCC8CC8)cc(F)c7c(=O)[nH]6)CC5)C4)CC3)c(F)c2)C(=O)N1` (stereo not shown) [Example 48, 3-((4-(4-(3-(4-(((7-(cyclopropylmethoxy)-5-fluoro-4-oxo-3,4-dihydroquinazolin-2-yl)methyl)thio)piperidin-1-yl)azetidin-1-yl)piperidin-1-yl)-3-fluorophenyl)amino)piperidine-2,6-dione]: the DC50 was below 30 nM.

Take `O=C1CCC(N2C(=O)c3cccc4c(N5CCN(CCN6CCC(SCc7nc8cc(OCC9CC9)cc(F)c8c(=O)[nH]7)CC6)CC5)ccc2c34)C(=O)N1` (stereo not shown) [Example 49, 3-(6-(4-(2-(4-(((7-(cyclopropylmethoxy)-5-fluoro-4-oxo-3,4-dihydroquinazolin-2-yl)methyl)thio)piperidin-1-yl)ethyl)piperazin-1-yl)-2-oxobenzo[cd]indol-1(2H)-yl)piperidine-2,6-dione]: the DC50 is below 30 nM.

With `O=C1CCC(N2Cc3cc(N4CCC(CN5CCC(SCc6nc7cc(OCC8CC8)cc(F)c7c(=O)[nH]6)CC5)CC4)ccc3C2=O)C(=O)N1` (stereo not shown) [Example 50, 3-(5-(4-((4-(((7-(cyclopropylmethoxy)-5-fluoro-4-oxo-3,4-dihydroquinazolin-2-yl)methyl)thio)piperidin-1-yl)methyl)piperidin-1-yl)-1-oxoisoindolin-2-yl)piperidine-2,6-dione], the DC50 is below 30 nM.

Take `O=C1CCC(Nc2ccc(N3CCC(N4CC(N5CCC(SCc6nc7cc(OCC8CCOCC8)cc(F)c7c(=O)[nH]6)CC5)C4)CC3)c(F)c2)C(=O)N1` (stereo not shown) [Example 51, 3-((3-fluoro-4-(4-(3-(4-(((5-fluoro-4-oxo-7-((tetrahydro-2H-pyran-4-yl)methoxy)-3,4-dihydroquinazolin-2-yl)methyl)thio)piperidin-1-yl)azetidin-1-yl)piperidin-1-yl)phenyl)amino)piperidine-2,6-dione formate]: the DC50 was below 30 nM.

Take `O=C1CCC(Nc2ccc(N3CCC(N4CCC(SCc5nc6cc(OCC7CCOCC7)cc(F)c6c(=O)[nH]5)CC4)CC3)c(F)c2)C(=O)N1` (stereo not shown) [Example 52, 3-((3-fluoro-4-(4-(((5-fluoro-4-oxo-7-((tetrahydro-2H-pyran-4-yl)methoxy)-3,4-dihydroquinazolin-2-yl)methyl)thio)-[1,4′-bipiperidin]-1′-yl)phenyl)amino)piperidine-2,6-dione]: the half-maximal degradation concentration (DC50) was below 30 nM.

As for `O=C1CCC(Nc2ccc(N3CCC(N4CCC(OCc5nc6cc(OCC7CC7)cc(F)c6c(=O)[nH]5)CC4)CC3)c(F)c2)C(=O)N1` (stereo not shown) [Example 53, 3-((4-(4-((7-(cyclopropylmethoxy)-5-fluoro-4-oxo-3,4-dihydroquinazolin-2-yl)methoxy)-[1,4′-bipiperidin]-1′-yl)-3-fluorophenyl)amino)piperidine-2,6-dione], the DC50 was below 30 nM.

Take `O=C1CCC(Nc2ccc(N3CCC(N4CCC(SCc5nc6cc(OCC7CC7)cc(F)c6c(=O)[nH]5)CC4)CC3)c(F)c2)C(=O)N1` (stereo not shown) [Example 54, 3-((4-(4-(((7-(cyclopropylmethoxy)-5-fluoro-4-oxo-3,4-dihydroquinazolin-2-yl)methyl)thio)-[1,4′-bipiperidin]-1′-yl)-3-fluorophenyl)amino)piperidine-2,6-dione formate]: the DC50 is below 30 nM.

Take `O=C1CCC(Nc2ccc(N3CCN(CCO[C@H]4CC[C@H](SCc5nc6cc(OCC7CC7)cc(F)c6c(=O)[nH]5)CC4)CC3)c(F)c2)C(=O)N1` (stereo partly shown) [Example 55, 3-((4-(4-(2-(((1r,4r)-4-(((7-(cyclopropylmethoxy)-5-fluoro-4-oxo-3,4-dihydroquinazolin-2-yl)methyl)thio)cyclohexyl)oxy)ethyl)piperazin-1-yl)-3-fluorophenyl)amino)piperidine-2,6-dione]: the DC50 is below 30 nM.

On to `O=C1CCC(Nc2ccc(N3CCC(CN4CCC(SCc5nc6cc(OCC7CC7)cc(F)c6c(=O)[nH]5)CC4)CC3)c(F)c2)C(=O)N1` (stereo not shown) [Example 56, 3-((4-(4-((4-(((7-(cyclopropylmethoxy)-5-fluoro-4-oxo-3,4-dihydroquinazolin-2-yl)methyl)thio)piperidin-1-yl)methyl)piperidin-1-yl)-3-fluorophenyl)amino)piperidine-2,6-dione formate], for which the DC50 is below 30 nM.

As to `O=C1CCC(Nc2ccc(N3CCC(N4CCC(SCc5nc6cc(OCC7CC7)cc(F)c6c(=O)[nH]5)CC4)CC3)c(C(F)(F)F)c2)C(=O)N1` (stereo not shown) [Example 57, 3-((4-(4-(((7-(cyclopropylmethoxy)-5-fluoro-4-oxo-3,4-dihydroquinazolin-2-yl)methyl)thio)-[1,4′-bipiperidin]-1′-yl)-3-(trifluoromethyl)phenyl)amino)piperidine-2,6-dione], the DC50 is below 30 nM.

Turning to `O=C1CCC(Nc2cc(F)c(N3CCC(N4CCC(SCc5nc6cc(OCC7CC7)cc(F)c6c(=O)[nH]5)CC4)CC3)cc2F)C(=O)N1` (stereo not shown) [Example 58, 3-((4-(4-(((7-(cyclopropylmethoxy)-5-fluoro-4-oxo-3,4-dihydroquinazolin-2-yl)methyl)thio)-[1,4′-bipiperidin]-1′-yl)-2,5-difluorophenyl)amino)piperidine-2,6-dione], the DC50 was below 30 nM.

`O=C1CCC(Nc2ccc(N3CCC(N4CCC(SCc5nc6cc(OCC7CC7)cc(F)c6c(=O)[nH]5)CC4)C3)c(F)c2)C(=O)N1` (stereo not shown) [Example 59, 3-((4-(3-(4-(((7-(cyclopropylmethoxy)-5-fluoro-4-oxo-3,4-dihydroquinazolin-2-yl)methyl)thio)piperidin-1-yl)pyrrolidin-1-yl)-3-fluorophenyl)amino)piperidine-2,6-dione]: the DC50 was below 30 nM.

Turning to `O=C1CCN(c2ccc(N3CCC(N4CCC(SCc5nc6cc(OCC7CC7)cc(F)c6c(=O)[nH]5)CC4)CC3)c(F)c2)C(=O)N1` [Example 60, 1-(4-(4-(((7-(cyclopropylmethoxy)-5-fluoro-4-oxo-3,4-dihydroquinazolin-2-yl)methyl)thio)-[1,4′-bipiperidin]-1′-yl)-3-fluorophenyl)dihydropyrimidine-2,4(1H,3H)-dione], the DC50 was below 30 nM.

Take `Cn1nc(N2CCC(=O)NC2=O)c2ccc(N3CCC(N4CCC(SCc5nc6cc(OCC7CC7)cc(F)c6c(=O)[nH]5)CC4)CC3)cc21` [Example 61, 1-(6-(4-(((7-(cyclopropylmethoxy)-5-fluoro-4-oxo-3,4-dihydroquinazolin-2-yl)methyl)thio)-[1,4′-bipiperidin]-1′-yl)-1-methyl-1H-indazol-3-yl)dihydropyrimidine-2,4(1H,3H)-dione]: the DC50 is below 30 nM.

Take `O=C1CCN(c2cncc3c(N4CCC(N5CCC(SCc6nc7cc(OCC8CC8)cc(F)c7c(=O)[nH]6)CC5)CC4)cccc23)C(=O)N1` [Example 62, 1-(8-(4-(((7-(cyclopropylmethoxy)-5-fluoro-4-oxo-3,4-dihydroquinazolin-2-yl)methyl)thio)-[1,4′-bipiperidin]-1′-yl)isoquinolin-4-yl)dihydropyrimidine-2,4(1H,3H)-dione]: the DC50 was below 30 nM.

As to `O=C1CCC(Nc2ccc(N3CCC(N4CCN(CCc5nc6cc(OCC7CC7)cc(F)c6c(=O)[nH]5)CC4)CC3)c(F)c2)C(=O)N1` (stereo not shown) [Example 63, 3-((4-(4-(4-(2-(7-(cyclopropylmethoxy)-5-fluoro-4-oxo-3,4-dihydroquinazolin-2-yl)ethyl)piperazin-1-yl)piperidin-1-yl)-3-fluorophenyl)amino)piperidine-2,6-dione formic salt], the DC50 was below 30 nM.

As for `O=C1CCC(Nc2ccc(N3CCC(C4CCN(CCc5nc6cc(OCC7CC7)cc(F)c6c(=O)[nH]5)CC4)CC3)c(F)c2)C(=O)N1` (stereo not shown) [Example 64, 3-((4-(1′-(2-(7-(cyclopropylmethoxy)-5-fluoro-4-oxo-3,4-dihydroquinazolin-2-yl)ethyl)-[4,4′-bipiperidin]-1-yl)-3-fluorophenyl)amino)piperidine-2,6-dione], the DC50 was below 30 nM.

`O=C1CCC(Nc2ccc(N3CCC(N4CCC(CCc5nc6cc(OCC7CC7)cc(F)c6c(=O)[nH]5)CC4)CC3)c(F)c2)C(=O)N1` (stereo not shown) [Example 65, 3-((4-(4-(2-(7-(cyclopropylmethoxy)-5-fluoro-4-oxo-3,4-dihydroquinazolin-2-yl)ethyl)-[1,4′-bipiperidin]-1′-yl)-3-fluorophenyl)amino)piperidine-2,6-dione]: the DC50 was below 30 nM.

With `O=C1CCC(Nc2ccc(N3CC(N4CCC(SCc5nc6cc(OCC7CC7)cc(F)c6c(=O)[nH]5)CC4)C3)c(F)c2)C(=O)N1` (stereo not shown) [Example 66, 3-((4-(3-(4-(((7-(cyclopropylmethoxy)-5-fluoro-4-oxo-3,4-dihydroquinazolin-2-yl)methyl)thio)piperidin-1-yl)azetidin-1-yl)-3-fluorophenyl)amino)piperidine-2,6-dione], the DC50 is below 30 nM.
